Data on 12 molecules can be found in ChEMBL document CHEMBL1201862, “PubChem BioAssay data set” (2004).

Each structure is given as a SMILES string.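 Tested at 5 concentrations; 48 h exposure; 96-well plates; endpoints linearly interpolated, else capped at highest concentration. At the GI50, growth is halved.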 The source made the active and inactive calls. No stated cut-off is given here; in the data, active = GI50 up to about 1.1 µM and inactive = higher. Bounds are passed on as bounds.

Among the test systems are ACHN; COLO 205; SK-MEL-2; RPMI-8226; M14; HT-29; CCRF-CEM; SR; CAKI-1; Malme-3M; EKVX; SF-268; SK-MEL-5; OVCAR-8; LOX IMVI; NCI-H23; HCC 2998; SNB-19.
Assay in all cases: DTP human tumour cell line panel, 48 h

As usually defined, the GI50 is the concentration at which growth is held to half of that of the control. Turning to `Cc1cc(N(CCC#N)CCC#N)ccc1/N=N/c1ccc([N+](=O)[O-])cc1`, the GI50 in the assay on ACHN was 95.9 µM (inactive); in the assay on COLO 205, > 100 µM (inactive); with SK-MEL-2, > 100 µM (inactive); with RPMI-8226, 44.9 µM (inactive); in the assay on M14 it was > 100 µM (inactive); in the assay on HT-29 it was > 100 µM (inactive). The GI50 in the assay with CCRF-CEM, in the assay on SR, in the assay with CAKI-1, in the assay on Malme-3M, with EKVX and in the assay on SF-268 was > 100 µM (inactive) each time. For the same molecule, the GI50 in the assay on SK-MEL-5 was > 10 µM (inactive); in the assay with OVCAR-8 it was 23 µM (inactive); in the assay with LOX IMVI it was 25.1 µM (inactive); in the assay on NCI-H23, 43 µM (inactive); in the assay on HCC 2998 it was > 100 µM (inactive); with SNB-19 it was 22 µM (inactive).
As for `Nc1nc(N)c2ncn(CCOC(c3ccccc3)P(=O)(O)O)c2n1` (stereo not given), the GI50 in the assay on ACHN, with COLO 205, in the assay with SK-MEL-2, in the assay with HT-29, in the assay on CCRF-CEM and with SR was > 100 µM (inactive) in each case. The GI50 in the assay with CAKI-1, in the assay on Malme-3M, in the assay on EKVX, with SF-268, in the assay with SK-MEL-5 and with OVCAR-8 was > 100 µM (inactive) throughout. Besides, the GI50 in the assay with LOX IMVI, in the assay with NCI-H23, in the assay with HCC 2998 and with SNB-19 was > 100 µM (inactive) throughout.
Consider `Cc1cc(C2CCCCC2)n(O)c(=O)c1` [CICLOPIROX OLAMINE], for which the GI50 with ACHN is 3.97 µM (inactive); in the assay with COLO 205, 39.4 µM (inactive); in the assay on SK-MEL-2, 21.3 µM (inactive); in the assay on RPMI-8226 it was 3.56 µM (inactive); in the assay with M14, 14.2 µM (inactive); in the assay on HT-29, 9.08 µM (inactive). Also, the GI50 is 1.1 µM (active) in the assay with CCRF-CEM; 2.95 µM (inactive) in the assay with SR; 15.7 µM (inactive) in the assay with Malme-3M; 4.04 µM (inactive) in the assay with EKVX; 4.25 µM (inactive) in the assay on SF-268; 10.4 µM (inactive) with SK-MEL-5. Moreover, the GI50 is 3.22 µM (inactive) in the assay with OVCAR-8; 11.9 µM (inactive) in the assay with LOX IMVI; 9.08 µM (inactive) with NCI-H23; 4.97 µM (inactive) in the assay on HCC 2998; 11.6 µM (inactive) in the assay with SNB-19.
Consider `N#CN1CCC=C(c2cc3ccccc3[nH]2)C1`, for which the GI50 in the assay with ACHN was 272 µM (inactive); in the assay with COLO 205, 388 µM (inactive); with SK-MEL-2 it was 279 µM (inactive); in the assay on RPMI-8226, 170 µM (inactive); in the assay with HT-29, > 448 µM (inactive); in the assay with CCRF-CEM, 188 µM (inactive). Besides, the GI50 in the assay on SR is 159 µM (inactive); with CAKI-1 it was 245 µM (inactive); in the assay on Malme-3M, 442 µM (inactive); in the assay on EKVX it was 270 µM (inactive); in the assay with SF-268, 210 µM (inactive); in the assay with SK-MEL-5, 148 µM (inactive). The GI50 with OVCAR-8 was 300 µM (inactive); in the assay on LOX IMVI, 230 µM (inactive); in the assay on NCI-H23 it was 182 µM (inactive); in the assay on HCC 2998 it was 185 µM (inactive); with SNB-19, > 448 µM (inactive).
`CCOC(=O)C(=O)Nc1c(C)cccc1CC`: the GI50 in the assay with ACHN, in the assay on SK-MEL-2, with RPMI-8226, in the assay on M14, with HT-29 and in the assay on CCRF-CEM was > 100 µM (inactive) throughout. Besides, the GI50 in the assay with SR, with CAKI-1, in the assay on Malme-3M, in the assay with EKVX, in the assay with SF-268 and in the assay on SK-MEL-5 was > 100 µM (inactive) in each case. The GI50 with OVCAR-8, in the assay on LOX IMVI, in the assay with NCI-H23, in the assay with HCC 2998 and in the assay on SNB-19 was > 100 µM (inactive) throughout.
Turning to `CC(=O)NC(CCCN(Cc1ccccc1)C(=O)N(CCCl)N=O)C(=O)NCc1ccccc1` (stereo not given), the GI50 with ACHN was 10.8 µM (inactive); with COLO 205, > 64.7 µM (inactive); in the assay with SK-MEL-2 it was > 66.5 µM (inactive); with RPMI-8226 it was > 70 µM (inactive); in the assay on M14, 42.7 µM (inactive); in the assay on HT-29 it was > 57.5 µM (inactive). Further, the GI50 in the assay on CCRF-CEM was 23 µM (inactive); in the assay on SR, 3.69 µM (inactive); with CAKI-1, 7.5 µM (inactive); with Malme-3M, > 53.1 µM (inactive); in the assay with EKVX, > 72.9 µM (inactive); in the assay on SF-268, 3.89 µM (inactive). In addition, the GI50 with SK-MEL-5 is 27.5 µM (inactive); with OVCAR-8, > 71.1 µM (inactive); with LOX IMVI it was 2.92 µM (inactive); in the assay with NCI-H23, 27 µM (inactive); with HCC 2998 it was 64.6 µM (inactive); in the assay with SNB-19 it was 17.8 µM (inactive).
Regarding `CNS(=O)(=O)NNS(=O)(=O)c1ccc(C)cc1`, the GI50 in the assay on ACHN, with COLO 205, in the assay with SK-MEL-2, with RPMI-8226, with M14 and in the assay on HT-29 was > 100 µM (inactive) each time. Besides, the GI50 in the assay with CCRF-CEM, in the assay on SR, with CAKI-1, with Malme-3M, in the assay on EKVX and in the assay with SF-268 was > 100 µM (inactive) in each case. In addition, the GI50 with SK-MEL-5, with OVCAR-8, with NCI-H23, in the assay on HCC 2998 and with SNB-19 was > 100 µM (inactive) in each case.
`NC(=S)N/N=C(\CC1OC(=O)c2ccccc21)c1ccc(Cl)cc1` (stereo not given): the GI50 in the assay with ACHN is 56.1 µM (inactive); in the assay on COLO 205, 38.6 µM (inactive); with RPMI-8226, 75.3 µM (inactive); with M14 it was 43.2 µM (inactive); in the assay on HT-29, 27.2 µM (inactive); in the assay on SR it was 60.7 µM (inactive). Besides, the GI50 in the assay with CAKI-1 is 36.3 µM (inactive); in the assay on Malme-3M, 30.6 µM (inactive); with SF-268, 36.8 µM (inactive); with OVCAR-8 it was 18 µM (inactive); in the assay on LOX IMVI it was 27.8 µM (inactive); in the assay with NCI-H23, 25.2 µM (inactive). Further, the GI50 in the assay on HCC 2998 was 23.9 µM (inactive); in the assay with SNB-19, 42.7 µM (inactive).
In the case of `Cc1cc(OCC(O)CO)ccc1-c1ccccc1` (stereo not given), the GI50 was > 100 µM (inactive) in the assay with ACHN; 61 µM (inactive) in the assay with COLO 205; > 100 µM (inactive) in the assay on SK-MEL-2; > 100 µM (inactive) with M14; 70.1 µM (inactive) in the assay on HT-29; 35 µM (inactive) in the assay on CCRF-CEM. The GI50 in the assay with SR is > 100 µM (inactive); in the assay with CAKI-1, > 100 µM (inactive); with Malme-3M, > 100 µM (inactive); in the assay on EKVX, 80.2 µM (inactive); in the assay with SF-268, > 100 µM (inactive); with SK-MEL-5 it was > 100 µM (inactive). In addition, the GI50 in the assay with OVCAR-8, in the assay on NCI-H23, with HCC 2998 and in the assay on SNB-19 was > 100 µM (inactive) throughout.
For the molecule `COc1cc(C)c2c(c1C)OC(=O)c1c(C)c(Cl)c(O)c(C=O)c1O2`, the GI50 in the assay with ACHN was 14.7 µM (inactive); in the assay with COLO 205, 29.2 µM (inactive); in the assay on RPMI-8226 it was 14 µM (inactive); in the assay on M14, 18.4 µM (inactive); in the assay on HT-29 it was 20.4 µM (inactive); in the assay with CCRF-CEM, 9.18 µM (inactive). In addition, the GI50 with SR was 14.3 µM (inactive); with CAKI-1, 52.2 µM (inactive); in the assay on Malme-3M it was 15.5 µM (inactive); in the assay with EKVX it was 10.3 µM (inactive); with SF-268 it was 9.66 µM (inactive); in the assay on SK-MEL-5, 60.1 µM (inactive). For the same molecule, the GI50 with OVCAR-8 was 10.2 µM (inactive); in the assay on LOX IMVI, 16 µM (inactive); with NCI-H23 it was 14.7 µM (inactive); in the assay on HCC 2998, 19.5 µM (inactive); with SNB-19, 19.1 µM (inactive).
In the case of `COCOCC/C=C/C=O`, the GI50 in the assay on ACHN, in the assay with COLO 205, in the assay with SK-MEL-2, with RPMI-8226, with M14 and in the assay with HT-29 was > 100 µM (inactive) in each case. The GI50 in the assay on CCRF-CEM, in the assay on SR, with Malme-3M, in the assay with EKVX, in the assay with SF-268 and in the assay with SK-MEL-5 was > 100 µM (inactive) in each case. In addition, the GI50 with OVCAR-8, with LOX IMVI, with NCI-H23, in the assay on HCC 2998 and in the assay with SNB-19 was > 100 µM (inactive) in each case.
As for `O=C1N2Cc3c4ccc5c3CN3C(=O)N6Cc7c(ccc(c7CN1C6(c1ccccc1)C23c1ccccc1)OCCOCCNCCOCCO4)OCCOCCNCCOCCO5` (stereo not given), the GI50 was 22.5 µM (inactive) in the assay with ACHN; 59.7 µM (inactive) in the assay on SK-MEL-2; 11.7 µM (inactive) in the assay on RPMI-8226; 21.8 µM (inactive) with M14; 13.9 µM (inactive) in the assay on HT-29; 23.2 µM (inactive) with CCRF-CEM. Besides, the GI50 in the assay on SR is 54.7 µM (inactive); in the assay on CAKI-1, 51.6 µM (inactive); with Malme-3M, 23.5 µM (inactive); in the assay on EKVX it was > 100 µM (inactive); with SF-268, > 100 µM (inactive); with SK-MEL-5, 55.2 µM (inactive). Further, the GI50 is 65 µM (inactive) with OVCAR-8, 70.5 µM (inactive) in the assay with NCI-H23, 34.9 µM (inactive) in the assay with HCC 2998 and > 100 µM (inactive) with SNB-19.
